From BigSolDB 2.1

CC(=O)Oc1ccc(C(c2ccc(OC(C)=O)cc2)c2ccccn2)cc1
solubility (mole fraction)
Settings	273.15 K	278.15 K	283.15 K	288.15 K	293.15 K	298.15 K	303.15 K	308.15 K	313.15 K
in 1,4-dioxane	–	–	–	0.00241	0.00274	0.00307	0.00343	0.00378	0.00424
in DMF	0.00201	0.00228	0.00255	0.00291	0.00325	0.00368	0.00407	0.00447	0.00496
in NMP	0.00187	0.0021	0.00236	0.00264	0.00295	0.0033	0.00372	0.00418	0.00474
in acetone	0.00126	0.00153	0.00181	0.00212	0.00246	0.00281	0.00318	0.00359	0.00403
in acetonitrile	0.000983	0.00115	0.00136	0.0016	0.00185	0.00215	0.00243	0.00274	0.00308
in ethanol	4.5e-05	5.8e-05	7.5e-05	9.1e-05	0.00011	0.00013	0.000159	0.000194	0.00024
in ethyl acetate	0.000724	0.000884	0.00107	0.00126	0.00148	0.00171	0.00198	0.00228	0.00263
in isopropanol	3.8e-05	5.2e-05	6.5e-05	8.1e-05	9.8e-05	0.000118	0.000142	0.000166	0.000204
in methanol	4.9e-05	6.6e-05	8.1e-05	0.000101	0.000123	0.000147	0.000171	0.000207	0.000254
in n-butanol	7.1e-05	8.8e-05	0.000106	0.000131	0.00016	0.00019	0.000223	0.000269	0.000324
in n-propanol	5.6e-05	7.3e-05	9.2e-05	0.000115	0.000141	0.00017	0.000199	0.000242	0.000304
in toluene	0.00044	0.000533	0.000648	0.00076	0.000895	0.00105	0.00122	0.00141	0.00161
